From publication PMC12778052 (Science Advances, 2026) come the findings set out here.

One may read the Kd as the free concentration of one partner at which half of the binding sites on the other are occupied at equilibrium, for simple one-to-one binding. The koff is a measure of how fast the partners let go of each other. A higher koff goes with fast dissociation.

Assay [1] deals with bladder cancer cell lines. Description: In vitro blocking of [^68Ga]AJ647 uptake by nonradioactive AJ647. The format is cell-based. The note with it: 2 μM nonradioactive AJ647 (0.2 nmol, blocking dose). On the procedure:
In vitro binding of [^68Ga]AJ647 to T24, SCaBER, RT112, UC9, UC14, and HT1376 cells was determined by incubating 1 × 10^6 cells with ~1 μCi of [^68Ga]AJ647 for 30 min at 4°C. After incubation, cells were washed three times with ice-cold PBS containing 0.1% Tween 20 and counted on an automated gamma counter. All cell radioactivity uptake studies were performed in quadruplicate for each cell line and repeated three times.

The target in assay [2] is T1, human Nectin-4 (Homo sapiens, UniProt Q96NY8).
T1 construct: purchased R&D Systems 2659-N4-050
T1 sequence (Q96NY8 32-349 limits assumed): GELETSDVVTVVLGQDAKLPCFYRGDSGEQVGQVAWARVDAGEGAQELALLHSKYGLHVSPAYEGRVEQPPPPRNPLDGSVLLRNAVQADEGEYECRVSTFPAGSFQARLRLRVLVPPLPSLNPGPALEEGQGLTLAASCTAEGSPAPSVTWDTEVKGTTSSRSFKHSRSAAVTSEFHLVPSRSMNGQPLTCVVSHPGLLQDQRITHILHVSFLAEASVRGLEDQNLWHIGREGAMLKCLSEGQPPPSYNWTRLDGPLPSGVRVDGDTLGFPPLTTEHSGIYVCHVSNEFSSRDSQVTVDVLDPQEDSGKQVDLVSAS
Description: SPR affinity for recombinant human Nectin-4. The format is binding. The note with it: Biacore T200, CM5 chip, 25°C, His-tagged recombinant protein captured, 1:1 kinetics fit, n = 3. On the procedure:
(§1) The affinity of AJ647 for human and mouse Nectin-4 recombinant proteins was evaluated by SPR. The experiments were conducted using a Biacore T200 instrument with a CM5 chip at 25°C. The ligands used were His-tagged human Nectin-4 (R&D Systems, catalog no. 2659-N4-050, 44 kDa, 0.2 mg/ml stock concentration) and mouse Nectin-4 proteins (R&D Systems, catalog no. 3116-N4-050, 45 kDa, 0.2 mg/ml stock concentration), which were immobilized onto the CM5 chip. AJ647 (3057.5 Da, 10 mM stock concentration) was used as the analyte, which flowed over the ligand-immobilized surface. FC2 and FC4 was used as the experimental flow cell, while FC1 and FC3 served as the reference. An anti-His antibody (1 mg/ml stock concentration) was immobilized on all flow cells using standard amine coupling chemistry. […] Human Nectin-4 was captured onto FC2 at a level of ~600 RU, with a 1:20 dilution and 10 μg/ml diluted concentration in PBS-P. Mouse Nectin-4 was captured onto FC4 at a level of 600 RU, with a 1:20 dilution and 10 μg/ml diluted concentration in PBS-P. The theoretical maximum response (Rmax ) values were calculated on the basis of the captured response values (table S1), assuming a 1:1 interaction mechanism. […] All association and dissociation kinetics were evaluated by 1:1 kinetics model fitting.
On the technique in general: In SPR one partner is held on a chip, and binding of the other changes the refractive index at the surface.

Assay [3] addresses T2, mouse Nectin-4 (Mus musculus, UniProt Q8R007).
T2 construct: purchased R&D Systems 3116-N4-050
T2 sequence (Q8R007 31-347 limits assumed): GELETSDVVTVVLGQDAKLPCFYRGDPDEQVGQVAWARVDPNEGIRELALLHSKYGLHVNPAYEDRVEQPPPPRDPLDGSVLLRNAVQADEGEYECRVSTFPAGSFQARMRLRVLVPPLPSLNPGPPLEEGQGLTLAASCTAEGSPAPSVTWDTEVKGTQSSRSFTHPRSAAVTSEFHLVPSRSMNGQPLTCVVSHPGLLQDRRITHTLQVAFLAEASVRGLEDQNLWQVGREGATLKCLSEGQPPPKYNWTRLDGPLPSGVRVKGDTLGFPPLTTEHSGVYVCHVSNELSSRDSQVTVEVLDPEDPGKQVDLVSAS
Description: SPR affinity for recombinant mouse Nectin-4. In kind it is binding. The following applies: Biacore T200, CM5 chip, 25°C, His-tagged recombinant protein captured, 1:1 kinetics fit, n = 3. On the procedure:
as §1

Assay [4] has as its system HT1376 xenografts. Description: In vivo blocking of [^68Ga]AJ647 uptake by nonradioactive AJ647, PET. On the set-up: species or system NSG mice. The note with it: nonradioactive AJ647 2 mg/kg pre-injected; PET-MR 60 min. On the procedure:
Mice with tumor volumes of ~100 to 150 mm^3 were injected with ~200 μCi [7.4 megabecquerels (MBq)] of [^68Ga]AJ647 in […] of 5% ethanol in saline intravenously and anesthetized under 2.5% isoflurane. PET-computed tomography (CT) images were acquired at 60 min after radiotracer injection at 5 min per bed in an ARGUS small-animal PET/CT scanner (Sedecal, Madrid, Spain) as described previously (n = 3, unless otherwise noted). PET-MR images were acquired on a simultaneous 7T Bruker PET-MR scanner. Dynamic imaging was conducted to evaluate the PK of [^68Ga]AJ647. [^68Ga]AJ647 was injected (with the help of a catheter) after mice were anesthetized under 2.5% isoflurane on the equipment bed. All PET data were reconstructed using the two-dimensional (2D) ordered subset expectation maximization algorithm and corrected for radioactive decay and dead times. The SUV values were calculated by finding %IA on the basis of a calibration factor obtained from a known radioactive quantity and then normalizing by mice weight. Amide software was used to derive SUV values by drawing the region of interest to closely fit tumors. […] For the change in accessible Nectin-4 following EV treatment, ΔSUV was calculated by subtracting baseline (pre-treatment) uptake from posttherapy uptake of [^68Ga]AJ647. TE was quantified by normalizing this change by initial SUV in the same subject controls. […]

The target in assay [5] is T3, His-tagged mouse Nectin-4 (R&D Systems, catalog no. 3116-N4-050) (mouse, UniProt Q8R007 31-347).
T3 chain: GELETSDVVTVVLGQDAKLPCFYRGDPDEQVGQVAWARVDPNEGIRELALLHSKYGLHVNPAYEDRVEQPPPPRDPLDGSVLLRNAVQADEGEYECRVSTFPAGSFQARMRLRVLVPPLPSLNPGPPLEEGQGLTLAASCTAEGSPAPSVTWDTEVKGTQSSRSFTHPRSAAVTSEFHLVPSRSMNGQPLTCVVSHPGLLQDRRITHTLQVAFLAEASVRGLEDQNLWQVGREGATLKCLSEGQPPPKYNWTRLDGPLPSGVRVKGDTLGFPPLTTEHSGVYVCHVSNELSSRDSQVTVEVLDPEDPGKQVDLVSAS
Description: SPR.

The target of assay [6] is T4, His-tagged human Nectin-4 (R&D Systems, catalog no. 2659-N4-050) (human, UniProt Q96NY8 32-349).
T4 chain: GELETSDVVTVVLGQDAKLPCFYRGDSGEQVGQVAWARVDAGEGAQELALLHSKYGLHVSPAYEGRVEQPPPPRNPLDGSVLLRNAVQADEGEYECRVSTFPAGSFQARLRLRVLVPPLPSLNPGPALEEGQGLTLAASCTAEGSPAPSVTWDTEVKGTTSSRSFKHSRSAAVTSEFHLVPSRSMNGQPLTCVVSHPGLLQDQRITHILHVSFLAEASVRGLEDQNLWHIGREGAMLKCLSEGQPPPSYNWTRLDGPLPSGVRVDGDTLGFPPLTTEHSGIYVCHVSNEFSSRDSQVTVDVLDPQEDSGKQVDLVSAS
Description: SPR.

Starred links: 1 amine or outer side, 2 acyl side, 3 side chain; linkers in the order of their positions; H or OH if unused. Positions of bridges follow the written chain, without caps; N, C: chain ends. Non-standard residues stand in square brackets, D forms with d. Primed or numbered codes have the meaning given here. *: point of attachment. TATA = O=C(CC[*:1])N1CN(C(=O)CC[*:2])CN(C(=O)CC[*:3])C1; NOTA = O=C(O)CN1CCN(CC(=O)O)CCN(CC(=O)*)CC1; Hyp = O=C(O)[C@@H]1C[C@@H](O)CN1; hArg = N=C(N)NCCCC[C@H](N)C(=O)O; PEG12′ = not defined here; Nal = naphthylalanine

Regarding `CSCC[C@@H]1NC(=O)[C@@H]2CSCCC(=O)N3CN(CN(C3)C(=O)CCSC[C@H](NC(=O)CCOCCOCCOCCOCCOCCOCCOCCOCCOCCOCCOCCOCCNC(=O)CN3CCN(CC(=O)O)CCN(CC(=O)O)CC3)C(=O)N3CCC[C@H]3C(=O)N[C@@H](Cc3cccc4ccccc34)C(=O)N[C@@H](CC(=O)O)C(=O)N2)C(=O)CCSC[C@@H](C(N)=O)NC(=O)[C@H](Cc2c[nH]c3ccccc23)NC(=O)[C@@H]2C[C@@H](O)CN2C(=O)[C@@H]2CCCN2C(=O)[C@H]([C@@H](C)O)NC(=O)[C@H](CO)NC(=O)[C@H](Cc2c[nH]c3ccccc23)NC(=O)[C@@H](CC(=O)O)NC(=O)[C@H](CCCCNC(=N)N)NC1=O` [AJ647], the “effect of co-incubation on radiotracer uptake” value in assay [1] is on record as “significantly reduced radiotracer uptake”. Moreover, the Kd in assay [2] was found to be 15 ± 10.1 nM; in assay [3], 14.1 ± 3.4 nM. Also, the “effect on [^68Ga]AJ647 uptake in HT1376 xenografts” value in assay [4] is “reduction in tracer uptake”.

Take {NOTA-PEG12′}-CP[Nal]DCM[hArg]DWSTP[Hyp]WC-NH2 (linker 1-5-15 via TATA; not fully specified (residue 8)) [AJ647 (NOTA-PEG12 conjugate of the bicyclic peptide AJ632)]: the values for the koff in assay [5] and in assay [6] were 0.0101 s⁻¹ and 0.0106 s⁻¹, respectively.
